From ChEMBL document CHEMBL3853335, “Citrinovirin with a new norditerpene skeleton from the marine algicolous fungus Trichoderma citrinoviride” (Bioorg Med Chem Lett, 2016)
In brackets after ≈: the same amount, converted by molar mass.

What was measured:
Chattonella marina = test: Growth inhibition of Chattonella marina at 100 ug/ml after 12 hrs by light microscopy; assay type: functional
[1] = Toxicity in Artemia salina assessed as lethality after 24 hrs
Staphylococcus aureus = test: Antimicrobial activity against Staphylococcus aureus after 24 hrs by agar diffusion method; assay type: functional
Heterosigma akashiwo = test: Growth inhibition of Heterosigma akashiwo at 100 ug/ml after 12 hrs by light microscopy; assay type: functional
Prorocentrum donghaiense = test: Growth inhibition of Prorocentrum donghaiense at 100 ug/ml after 12 hrs by light microscopy; assay type: functional
Scrippsiella trochoidea = test: Growth inhibition of Scrippsiella trochoidea at 100 ug/ml after 12 hrs by light microscopy; assay type: functional
Colletotrichum lagenaria = test: Antimicrobial activity against Colletotrichum lagenarium after 24 hrs by agar diffusion method; assay type: functional
[2] = test system: Colletotrichum gloeosporioides; test: Antimicrobial activity against Colletotrichum gloeosporioides after 24 hrs by agar diffusion method; assay type: functional
Escherichia coli = test: Antimicrobial activity against Escherichia coli after 24 hrs by agar diffusion method; assay type: functional

Compound	growth inhibition (GI) (Chattonella marina)	MIC (Staphylococcus aureus)	growth inhibition (GI) (Prorocentrum donghaiense)	growth inhibition (GI) (Scrippsiella trochoidea)	other results
CCCC[C@@H](C)[C@@H]1[C@@H]2C=C[C@H]3[C@H](C)[C@@H](O)[C@@H](O)[C@@H]3[C@]1(C)OC2=O	37.2%	12.4 µg/mL (≈ 38.5 µM)	14.1%	-47.2%	LC50 at 24 h [1]: 65.6 µg/mL (≈ 203 µM); inhibition of growth at 100 µg/mL (Heterosigma akashiwo; read-out: GI): 23.4%
C[C@@H]1[C@H](O)[C@@H](C)/C=C/C=C/C=C/C=C/C=C/C=C/C=C/[C@H](O[C@@H]2O[C@H](C)[C@@H](O)[C@H](N)[C@@H]2O)C[C@@H]2O[C@](O)(C[C@@H](O)C[C@@H](O)[C@H](O)CC[C@@H](O)C[C@@H](O)CC(=O)O[C@H]1C)C[C@H](O)[C@H]2C(=O)O [AMPHOTERICIN B]					MIC (Colletotrichum lagenaria): 12.4 µg/mL (≈ 13.4 µM); MIC [2]: 12.4 µg/mL (≈ 13.4 µM)
O=C(N[C@H](CO)[C@H](O)c1ccc([N+](=O)[O-])cc1)C(Cl)Cl [CHLORAMPHENICOL]		0.8 µg/mL (≈ 2.48 µM)			MIC (Escherichia coli): 1.6 µg/mL (≈ 4.95 µM)
POTASSIUM DICHROMATE [listing 1 of 2 here]					LC50 ([1]; 24 h): 20.8 µg/mL
POTASSIUM DICHROMATE [listing 2 of 2 here]	74.4%		71.7%	71.9%	growth inhibition (GI) (Heterosigma akashiwo): 78.4%
